Results published in US10208029B2, “Photoacid compositions having extended lifetime of proton dissociation state” (University of Central Florida Research Foundation, Inc., priority 2013, dated 2019).

How the values were obtained:
[1] = pH of aqueous solution of photoacid 1 in the dark, under 419 nm irradiation and after light off; assay type: physicochemical
Excerpt: Photoacid 1 shown in FIG. 2B as MEH comprises an example disclosed PAH comprising a protonated photochromic merocyanine (MEH) with a propyl sulfonate group on the nitrogen of the indoline moiety. It was discovered that photoacid 1 can reversibly change the proton concentration of its solution by over 100 times.
In an aqueous solution, the MEH form of 1 is predominantly at room temperature in the dark, which was proven by UV-Vis and NMR spectroscopy.
Proton dissociation of the cis-MEH produces cis-ME, which undergoes a nucleophilic ring closing reaction to yield the product shown as SP in FIG. 2B and a proton. The product formed by the ring closing process has a stabilized proton dissociation state.
When the light was turned off, the pH value increased quickly to ˜4.5 in ˜1 min, gradually returning to its original level in ˜5 min. This cycle can be repeated many times. Therefore, the proton concentration in a solution having photoacid 1 can be simply controlled by switching a visible light source on and off.

[2] = Reversibility of photo-induced proton release; assay type: physicochemical; details: PBS buffer with a pH of 7.4
Excerpt: Referring now to FIGS. 6A-6QQ, the structures of 43 photoacids designed based on FIG. 3A including the photoacids 1 and 40 are shown. All of them have been synthesized. […]. Analogs of photoacid 1 have been extensively studied. Electron-donating groups (-Me and —OMe) on the phenolic moiety increase the stability of the photoacid towards hydrolysis and faster the reverse reaction rate. Photoacids with extended conjugated structures can absorb light and thus function at longer wavelengths than photoacid 1. For example, photoacid 20 has a maximum absorption at 538 nm in 95% ethanol solution, which is about 100 nm longer than that of photoacid 1. Photoacids 10, 17 and 39 have acrylate moieties. They can be used to make photoacid polymers via chain-growth polymerization or thiol-ene reaction. […]. […] In photoacid 34, a benzothiazolium is used as the EA part since it improves the reversibility of the photoreaction.

Row | SMILES | reversible change of proton concentration of its solution [1] | pH value of aqueous solution ([1]; 5.88×10^−4 M aqueous solution, 25° C., dark) | pH under irradiation ([1]; aqueous solution irradiated with 419 nm light) | pH drop upon irradiation ([1]; aqueous solution, 419 nm light) | time to return to original pH level after light off ([1]; aqueous solution, dark) [min] | pKa ([1]; calculated from pH of 5.88×10^−4 M aqueous solution at 25° C., dark state) | pH value after the light was turned off ([1]; ~1 min after light off) | reversible proton release [2]
1 | CC1(C)C(/C=C/c2ccccc2O)=[N+](CCCS(=O)(=O)[O-])c2ccccc21 [photoacid 1] | over 100 times | 5.5 | 3.3 | more than 2 units | ~5 | 7.8 | ~4.5 | 
2 | O=S(=O)([O-])CCC[n+]1c(/C=C/c2cccc3cn[nH]c23)sc2ccccc21 [photoacid 34] |  |  |  |  |  |  |  | can reversibly release a proton
